Values joined by “and” are separate entries in the source; they are usually repeats but may differ in a detail not shown here. Equal values may be shown once. Read-outs that look alike come from different tables or passages of the source.
Assays:
[1] = system: MOP (GIRK2 channel activation); test: GIRK channel membrane potential assay (G protein signaling); assay type: cell-based, mouse; details: for values normalised to 1µM DAMGO, mean: mean of replicates; for values normalised to 1µM DAMGO (individual values): single replicate values
Procedure: To analyze Gi signaling, changes in membrane potential produced by activation of G protein-gated inwardly rectifying potassium channel (GIRK) were measured as previously described[50],[51]. HEK293 cells were stably transfected with HA-MOP and GFP-conjugated GIRK2 channel plasmids (OriGene). The cells were then seeded in 96-well plates and allowed to grow at 37 °C in 5% CO2 for 48 h. […] A membrane potential dye (FLIPR Membrane Potential kit BLUE, Molecular Devices R8034) was reconstituted according to the manufacturer’s instructions. To each well, 90 μl of the HBSS/HEPES buffer solution and an equal volume of the membrane potential dye were added to a final volume of 180 μl per well. The cells were then incubated at 37 °C for 45 min. Test compounds were prepared in buffer solution containing HBSS and 20 mM HEPES solution (pH 7.4) at tenfold the final concentration to be measured. […] Baseline readings were taken every 1.8 s for 1 min. […] The change in dye fluorescence was recorded for 240 s with SoftMax Pro 5.4 software. Peak fluorescence values were obtained after subtraction of baseline readings for each sample and then used to calculate concentration–response curves using Origin.

MOP, GRK2 = MOP, GRK2 (Mus musculus, UniProt P42866); details: for GRK2 recruitment, normalised: normalized to 10 µM DAMGO
Sequence of MOP, GRK2 (P25098 whole entry): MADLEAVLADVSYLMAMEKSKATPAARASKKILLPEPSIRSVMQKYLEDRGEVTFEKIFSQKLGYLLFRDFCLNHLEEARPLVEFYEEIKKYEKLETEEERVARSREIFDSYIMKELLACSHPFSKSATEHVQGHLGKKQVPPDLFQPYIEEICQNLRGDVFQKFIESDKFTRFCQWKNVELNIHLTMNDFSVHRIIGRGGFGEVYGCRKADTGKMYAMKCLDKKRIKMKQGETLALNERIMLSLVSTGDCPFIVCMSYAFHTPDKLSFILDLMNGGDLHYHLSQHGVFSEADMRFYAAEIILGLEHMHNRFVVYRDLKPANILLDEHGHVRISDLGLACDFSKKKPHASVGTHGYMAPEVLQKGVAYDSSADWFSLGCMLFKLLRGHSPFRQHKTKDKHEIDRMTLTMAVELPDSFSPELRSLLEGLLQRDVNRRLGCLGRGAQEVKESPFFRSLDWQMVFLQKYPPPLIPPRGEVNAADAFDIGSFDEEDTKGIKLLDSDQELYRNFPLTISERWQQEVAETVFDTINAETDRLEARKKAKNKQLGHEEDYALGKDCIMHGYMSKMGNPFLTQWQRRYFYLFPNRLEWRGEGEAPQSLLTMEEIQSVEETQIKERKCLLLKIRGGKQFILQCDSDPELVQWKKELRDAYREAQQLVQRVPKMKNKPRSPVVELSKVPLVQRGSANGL
Sequence of MOP, GRK2 (P42866 whole entry): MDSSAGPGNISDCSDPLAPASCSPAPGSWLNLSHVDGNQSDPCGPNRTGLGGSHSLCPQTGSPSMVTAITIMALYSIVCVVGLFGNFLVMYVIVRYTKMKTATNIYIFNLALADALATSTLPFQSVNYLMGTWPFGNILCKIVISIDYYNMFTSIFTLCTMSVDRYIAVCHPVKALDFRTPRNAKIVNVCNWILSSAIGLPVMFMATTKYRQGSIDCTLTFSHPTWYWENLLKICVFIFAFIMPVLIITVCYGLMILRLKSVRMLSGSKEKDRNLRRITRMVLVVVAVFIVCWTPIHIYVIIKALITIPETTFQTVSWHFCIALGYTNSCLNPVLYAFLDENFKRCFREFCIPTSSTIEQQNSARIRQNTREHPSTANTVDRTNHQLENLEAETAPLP
Procedure: Agonist-dependent binding of GRK2/3 and arrestin1/2 to a MOP was determined using a β-galactosidase complementation assay as previously described[47]. […] Cells were plated in 48-well plates and grown for 48 h. After 60 min of agonist exposure, a cell lysis reagent was added, and luminescence was recorded with a FlexStation 3 microplate reader (Molecular Devices).

MOP = target: T1, MOP (Mus musculus, UniProt P42866); test: [3H]DAMGO saturation binding, MOP-HEK293 membranes
T1 construct: host or cells: HEK293 (Control-HEK293 or GRK-knockout clones), stably transfected
T1 sequence (P42866 whole entry): as above

WT-HEK293 cells = test: [3H]DAMGO saturation binding, WT-HEK293 (native) membranes
CB2 cannabinoid receptor [2] = target: T2, CB2 cannabinoid receptor (Homo sapiens, UniProt P34972); test: pS335/pS336-CB2 7TM phosphorylation assay; assay type: cell-based; details: for pS335/pS336 (CB2 Phosphorylation Assay): raw duplicate readings
T2 construct: host or cells: HEK293 (CB2-HEK293)
T2 sequence (P34972 whole entry): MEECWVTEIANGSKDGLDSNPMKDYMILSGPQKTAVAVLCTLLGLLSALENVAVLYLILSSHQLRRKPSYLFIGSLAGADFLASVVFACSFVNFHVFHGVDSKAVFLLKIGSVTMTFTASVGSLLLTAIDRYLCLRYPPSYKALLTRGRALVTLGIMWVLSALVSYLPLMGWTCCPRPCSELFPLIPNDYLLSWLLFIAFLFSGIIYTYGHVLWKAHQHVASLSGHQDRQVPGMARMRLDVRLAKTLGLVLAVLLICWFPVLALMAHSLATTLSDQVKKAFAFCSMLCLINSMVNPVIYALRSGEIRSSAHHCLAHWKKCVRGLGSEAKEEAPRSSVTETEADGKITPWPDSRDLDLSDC

CB2 cannabinoid receptor [3] = target: T2, CB2 cannabinoid receptor; test: pT338/pT339-CB2 7TM phosphorylation assay; assay type: cell-based; details: for pT338/pT339-CB2 phosphorylation (OD405): raw duplicate readings

C[C@@H](NC(=O)[C@@H](N)Cc1ccc(O)cc1)C(=O)NCC(=O)N(C)[C@@H](Cc1ccccc1)C(=O)NCCO [DAMGO, [D-Ala^2,N-MePhe^4,Gly-ol]-enkephalin]
pEC50 GIRK [1]: 8.9 | values normalised to 1µM DAMGO, mean ([1]; 1pM ligand): 5.028 | values normalised to 1µM DAMGO (individual values) ([1]; 1pM ligand): 5.593 and 7.859 and 3.46 and 5.717 and 7.582 and 8.1092 and 3.374 and 6.042 and 4.849 and 0.5787 and 7.292 and 5.88 and 8.096 and 0.05434 and -0.3462 and 6.3053 | values normalised to 1µM DAMGO, mean ([1]; 10pM ligand): 7.472 | values normalised to 1µM DAMGO (individual values) ([1]; 10pM ligand): 15.49 and 11.6111 and 4.26 and 2.279 and 5.498 and 3.993 and 8.348 and 9.984 and 18.2069 and 4.03 and 10.8569 and 5.742 and 4.237 and 3.526 and 0.4892 and 11.0085 | values normalised to 1µM DAMGO, mean ([1]; 100pM ligand): 9.137 | values normalised to 1µM DAMGO (individual values) ([1]; 100pM ligand): 16.8969 and 12.3538 and 1.282 and -0.5086 and 23.733 and 7.982 and 12.165 and 15.3952 and 18.3102 and 7.555 and 2.414 and 2.004 and 6.703 and 3.838 and 4.846 and 11.227 | values normalised to 1µM DAMGO, mean ([1]; 1nM ligand): 50.7802 | values normalised to 1µM DAMGO (individual values) ([1]; 1nM ligand): 57.1798 and 57.3562 and 19.6942 and 27.9023 and 58.4493 and 49.8324 and 71.4212 and 70.7134 and 62.495 and 60.2954 and 56.8628 and 49.7728 and 53.0466 and 27.1278 and 35.6907 and 54.6435 | values normalised to 1µM DAMGO, mean ([1]; 5nM ligand): 92.3187 | values normalised to 1µM DAMGO, mean ([1]; 10nM ligand): 95.5035 | values normalised to 1µM DAMGO, mean ([1]; 50nM ligand): 101.174 | values normalised to 1µM DAMGO, mean ([1]; 100nM ligand): 99.3452 | values normalised to 1µM DAMGO (individual values) ([1]; 100nM ligand): 100.4 and 100.34 and 112.066 and 111.922 | values normalised to 1µM DAMGO, mean ([1]; 0.5µM ligand): 99.405 | values normalised to 1µM DAMGO (individual values) ([1]; 0.5µM ligand): 99.2581 and 100.369 and 110.848 and 112.015 and 90.6195 and 92.807 and 98.2073 and 99.2624 and 100.349 and 111.9 and 110.485 and 68.4902 and 89.9215 and 98.2442 and 106.456 and 101.247 | DAMGO 1µM signal in RFU ([1]; 1µM DAMGO, one value per experiment): 38.399 RFU and 40.2317 RFU and 34.405 RFU and 46.8468 RFU and 42.8267 RFU and 41.1246 RFU and 35.6065 RFU and 41.2536 RFU | values normalised to 1µM DAMGO, mean ([1]; 1µM ligand): 100 | values normalised to 1µM DAMGO (individual values) ([1]; 1µM ligand): 102.126 and 101.322 and 95.8603 and 104.14 and 98.9994 and 101.001 and 101.569 and 98.4312 and 97.8738 and 109.455 and 90.5448 and 97.309 and 102.691 and 100.145 and 99.8548 and 98.6775 | GRK2 recruitment, raw value (MOP, GRK2; agonist 0.01 µM): 1.0365 and 0.9786 and 1.1651 and 0.7672 | GRK2 recruitment, raw value (MOP, GRK2; agonist 0.1 µM): 1.7391 and 1.2836 and 1.7883 and 1.2791 | GRK2 recruitment, raw value (MOP, GRK2; agonist 1 µM): 3.3164 and 2.1606 and 3.0001 and 2.3217 | GRK2 recruitment, normalised (MOP, GRK2; agonist 1 µM): 102.84% and 51.53% and 88.80% and 58.68% | GRK2 recruitment, raw value (MOP, GRK2; agonist 10 µM): 3.4288 and 3.1599 and 2.7372 and 3.6836 | GRK2 recruitment, normalised (MOP, GRK2; agonist 10 µM): 107.83% and 95.89% and 77.13% and 119.15% | GRK2 recruitment, raw value (MOP, GRK2; agonist 100 µM): 3.2449 and 4.0099 and 3.3544 and 3.8787 | GRK2 recruitment, normalised (MOP, GRK2; agonist 100 µM): 99.67% and 133.63% and 104.53% and 127.81%

C[C@@H](NC(=O)[C@@H](N)Cc1ccc(O)cc1)C(=O)NCC(=O)N(C)[C@@H](Cc1ccccc1)C(=O)NCCO [[3H]DAMGO]
Bmax (MOP; 25°C, 60 min): 2279 ± 19 fmol/mg protein | saturation binding, mean, HEK293-MOP-HA (MOP; concentration 0.05 nM): 173.5 | saturation binding, mean, HEK293-MOP-HA (MOP; concentration 2.05 nM): 1520.4 | saturation binding, mean, HEK293-MOP-HA (MOP; concentration 2.57 nM): 1621.54 | saturation binding, mean, HEK293-MOP-HA (MOP; concentration 4.21 nM): 1763.3 | saturation binding, mean, HEK293-MOP-HA (MOP; concentration 5.23 nM): 2020.39 | saturation binding, mean, HEK293-native (WT-HEK293 cells; concentration 0.05 nM): 2.17 | saturation binding, mean, HEK293-native (WT-HEK293 cells; concentration 2.05 nM): 2.19 | saturation binding, mean, HEK293-native (WT-HEK293 cells; concentration 2.57 nM): 14.32 | saturation binding, mean, HEK293-native (WT-HEK293 cells; concentration 4.21 nM): 26.91 | saturation binding, mean, HEK293-native (WT-HEK293 cells; concentration 5.23 nM): 41.11

CCCCCCC(C)(C)c1ccc([C@@H]2C[C@H](O)CC[C@H]2CCCO)c(O)c1 [CP55940]
OD405 min pS335/pS336-CB2 (CB2 cannabinoid receptor [2]): 0.38 | pS335/pS336 (CB2 Phosphorylation Assay) (CB2 cannabinoid receptor [2]; CP55940 1e-6 µM): 0.4195 and 0.458 and 0.3421 | pS335/pS336 (CB2 Phosphorylation Assay) (CB2 cannabinoid receptor [2]; CP55940 1e-5 µM): 0.3429 and 0.4547 and 0.4707 and 0.3409 and 0.3589 and 0.38 | pS335/pS336 (CB2 Phosphorylation Assay) (CB2 cannabinoid receptor [2]; CP55940 0.0001 µM): 0.3452 and 0.3952 and 0.4236 and 0.425 and 0.3513 and 0.3869 | pS335/pS336 (CB2 Phosphorylation Assay) (CB2 cannabinoid receptor [2]; CP55940 0.001 µM): 0.3318 and 0.3924 and 0.4101 and 0.3997 and 0.3583 | pS335/pS336 (CB2 Phosphorylation Assay) (CB2 cannabinoid receptor [2]; CP55940 0.1 µM): 0.8954 | pS335/pS336 (CB2 Phosphorylation Assay) (CB2 cannabinoid receptor [2]; CP55940 1 µM): 1.0018 and 0.9312 and 1.0017 and 0.8185 | pS335/pS336 (CB2 Phosphorylation Assay) (CB2 cannabinoid receptor [2]; CP55940 10 µM): 0.9538 and 0.8534 | OD405 max pT338/pT339-CB2 (CB2 cannabinoid receptor [3]): 1.74 | pT338/pT339-CB2 phosphorylation (OD405) (CB2 cannabinoid receptor [3]; CP55940 0.01 µM): 0.418 and 0.427 and 0.4081 and 0.4835 and 0.513 | pT338/pT339-CB2 phosphorylation (OD405) (CB2 cannabinoid receptor [3]; CP55940 0.1 µM): 0.4372 and 0.4959 and 0.4415 and 0.4741 and 0.5035 and 0.468 | pT338/pT339-CB2 phosphorylation (OD405) (CB2 cannabinoid receptor [3]; CP55940 0.3 µM): 0.4559 and 0.4962 and 0.7064 and 0.6812 | pT338/pT339-CB2 phosphorylation (OD405) (CB2 cannabinoid receptor [3]; CP55940 1 µM): 0.467 and 0.4332 and 0.3917 and 0.4407 and 0.4084 and 0.4786 | pT338/pT339-CB2 phosphorylation (OD405) (CB2 cannabinoid receptor [3]; CP55940 3 µM): 0.4766 and 0.4184 and 0.4965 and 0.6601 | pT338/pT339-CB2 phosphorylation (OD405) (CB2 cannabinoid receptor [3]; CP55940 10 µM): 1.4013 and 1.5745 and 1.5305 | pT338/pT339-CB2 phosphorylation (OD405) (CB2 cannabinoid receptor [3]; CP55940 30 µM): 1.5241 | pT338/pT339-CB2 phosphorylation (OD405) (CB2 cannabinoid receptor [3]; CP55940 100 µM): 1.603 and 1.5834 and 1.3626

CN1CC[C@]23c4c5ccc(O)c4O[C@H]2[C@@H](O)C=C[C@H]3[C@H]1C5 [Morphine, morphine]
values normalised to 1µM DAMGO, mean ([1]; 1pM ligand): 6.485 | values normalised to 1µM DAMGO, mean ([1]; 10pM ligand): 6.027 | values normalised to 1µM DAMGO, mean ([1]; 100pM ligand): 6.211 | values normalised to 1µM DAMGO, mean ([1]; 1nM ligand): 9.125 | values normalised to 1µM DAMGO, mean ([1]; 5nM ligand): 29.6678 | values normalised to 1µM DAMGO (individual values) ([1]; 5nM ligand): 45.7495 and 19.0875 and 13.0961 and 9.052 and 36.1933 and 47.9074 and 51.2561 and 57.2816 and 46.4485 and 43.1943 and 26.9461 and 14.2883 and 14.2724 and 18.5122 and 18.46 and 12.9399 | values normalised to 1µM DAMGO, mean ([1]; 10nM ligand): 57.2564 | values normalised to 1µM DAMGO (individual values) ([1]; 10nM ligand): 58.6156 and 56.0883 and 35.9476 and 44.5152 and 64.4335 and 68.3763 and 70.0077 and 70.5635 and 61.8308 and 50.7811 and 68.4527 and 63.2893 and 55.6505 and 50.3141 and 38.9941 and 58.2419 | values normalised to 1µM DAMGO, mean ([1]; 50nM ligand): 66.3769 | values normalised to 1µM DAMGO (individual values) ([1]; 50nM ligand): 62.166 and 62.2926 and 44.6191 and 54.7318 and 72.3421 and 70.8947 and 81.0497 and 84.3524 and 69.6407 and 82.417 and 82.3952 and 62.9287 and 75.1596 and 38.3592 and 49.3923 and 69.2894 | values normalised to 1µM DAMGO, mean ([1]; 100nM ligand): 74.2194 | values normalised to 1µM DAMGO (individual values) ([1]; 100nM ligand): 89.3793 and 68.637 and 62.5767 and 14.9163 and 86.9174 and 89.8616 and 87.7405 and 94.4167 and 90.0012 and 88.0147 and 94.1235 and 58.569 and 65.3044 and 67.2492 and 54.6739 and 75.1284 | values normalised to 1µM DAMGO, mean ([1]; 0.5µM ligand): 76.9579 | values normalised to 1µM DAMGO (individual values) ([1]; 0.5µM ligand): 87.9206 and 64.7531 and 55.8615 and 55.3841 and 81.7364 and 84.8283 and 97.4763 and 95.5436 and 86.95 and 86.0094 and 85.8902 and 63.7515 and 63.5249 and 73.9389 and 76.3702 and 71.3871 | values normalised to 1µM DAMGO, mean ([1]; 1µM ligand): 72.8983 | values normalised to 1µM DAMGO (individual values) ([1]; 1µM ligand): 75.501 and 68.3564 and 51.865 and 76.6338 and 75.1014 and 79.046 and 83.5821 and 81.3432 and 80.3317 and 85.1376 and 62.4253 and 66.1705 and 66.7508 and 75.1369 and 66.0921

— paper PMC9646841, “A bead-based GPCR phosphorylation immunoassay for high-throughput ligand profiling and GRK inhibitor screening” (Communications Biology, 2022)
